Results on eleven compounds are retold here after PubChem BioAssay (NCI).

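Briefly, cells in 96-well plates were exposed to five compound concentrations for 48 h, and endpoints were estimated by linear interpolation. GI50: concentration for 50% inhibition of growth. TGI marks complete inhibition of growth.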

Some test systems named below: MDA-MB-435; HS 578T breast; OVCAR-3 ovarian; SNB-75 CNS; CAKI-1 renal; SF-295 CNS; NCI-H226 lung; HOP-92 NSCLC; UO-31 renal; SW-620 colon.
Common to all, as to assay: growth of human tumour cells (NCI), 48 h

With `CC(C)(C)c1ccc(C(=O)N/N=C/c2ccc(O)cc2O)cc1`, the GI50 in the experiment on MDA-MB-435 is 0.806 µM; in the experiment on HS 578T breast it was 2.42 µM; in the experiment with OVCAR-3 ovarian, 0.28 µM; in the experiment with SNB-75 CNS it was 0.584 µM; in the experiment with CAKI-1 renal it was 0.342 µM; in the experiment with SF-295 CNS, 0.327 µM. Also, the GI50 in the experiment on NCI-H226 lung was 0.412 µM; in the experiment with HOP-92 NSCLC, 1.65 µM; with UO-31 renal, 0.24 µM; in the experiment on SW-620 colon, 0.62 µM. Further, the TGI turned out to be 21.6 µM in the experiment on MDA-MB-435; 27.3 µM with HS 578T breast; 2.06 µM in the experiment on OVCAR-3 ovarian; 13.6 µM in the experiment on SNB-75 CNS; 1.99 µM in the experiment with CAKI-1 renal; 3.22 µM in the experiment on SF-295 CNS. Also, the TGI was found to be 5.75 µM in the experiment on NCI-H226 lung, 13.7 µM in the experiment with HOP-92 NSCLC, 2.28 µM in the experiment on UO-31 renal and 13.1 µM with SW-620 colon.

`CC1OC(OC2C(OC3C[C@@]4(C)C(C[C@H](O)[C@H]5[C@H](C6(C)CCC(C(C)(C)O)O6)CCC54C)[C@]4(C)CC[C@@H](O)C(C)(C)C34)OC(CO)C(O)C2O)C(O)C(O)C1O` (stereo not given in full) (tested in a mixture with another compound): the TGI in the experiment on MDA-MB-435, with HS 578T breast, with OVCAR-3 ovarian, in the experiment on SNB-75 CNS, in the experiment with CAKI-1 renal and in the experiment on SF-295 CNS was greater than 100 µM throughout. In addition, the TGI with NCI-H226 lung, with HOP-92 NSCLC, in the experiment on UO-31 renal and in the experiment on SW-620 colon was greater than 100 µM throughout.

On to `CN(C)CCCNC(=O)c1cc2c3ccccc3[nH]c2c2ncccc12`, for which the GI50 was 11.1 µM in the experiment with MDA-MB-435; 14.5 µM with HS 578T breast; 16.3 µM with OVCAR-3 ovarian; 13 µM in the experiment on SNB-75 CNS; 7.83 µM in the experiment on CAKI-1 renal; 7.49 µM with SF-295 CNS. Moreover, the GI50 in the experiment with NCI-H226 lung was 19.9 µM; with HOP-92 NSCLC, 14.2 µM; with UO-31 renal it was 10.9 µM; with SW-620 colon, 6.34 µM. Further, the TGI in the experiment with MDA-MB-435 was 23.4 µM; with HS 578T breast, 38.3 µM; in the experiment on OVCAR-3 ovarian, 54.9 µM; with SNB-75 CNS it was 33.8 µM; in the experiment on CAKI-1 renal it was 56.5 µM; in the experiment on SF-295 CNS it was 28 µM. Further, the TGI is greater than 100 µM in the experiment with NCI-H226 lung, 57.3 µM with HOP-92 NSCLC, greater than 100 µM in the experiment with UO-31 renal and 33.4 µM in the experiment on SW-620 colon.

Take `CCN(CC)c1ccc(/C=C/C(=O)c2cccc(NS(C)(=O)=O)c2)cc1`: the GI50 is 3.29 µM with MDA-MB-435; 19.3 µM with HS 578T breast; 6.37 µM in the experiment with OVCAR-3 ovarian; 10.6 µM with SNB-75 CNS; 7.97 µM in the experiment on CAKI-1 renal; 5.91 µM with SF-295 CNS. Besides, the GI50 in the experiment with NCI-H226 lung is 74 µM; in the experiment on HOP-92 NSCLC it was 14 µM; in the experiment on UO-31 renal it was greater than 100 µM; in the experiment with SW-620 colon it was 3.27 µM. In addition, the TGI with MDA-MB-435, in the experiment with HS 578T breast, with OVCAR-3 ovarian, in the experiment on SNB-75 CNS, in the experiment on CAKI-1 renal and in the experiment on SF-295 CNS was greater than 100 µM throughout. Besides, the TGI in the experiment with NCI-H226 lung was greater than 100 µM; with HOP-92 NSCLC, 71.1 µM; in the experiment with UO-31 renal, greater than 100 µM; in the experiment with SW-620 colon, greater than 100 µM.

On to `CC(=O)NNC(=O)c1nn(-c2ccc(Cl)cc2)cc1OC(C)=O`, for which the GI50 is 30.3 µM with MDA-MB-435; 40 µM in the experiment with HS 578T breast; 18.8 µM with OVCAR-3 ovarian; greater than 66.5 µM in the experiment with SNB-75 CNS; 9.3 µM in the experiment with CAKI-1 renal; 15.9 µM with SF-295 CNS. Besides, the GI50 is 22.1 µM with NCI-H226 lung, 38.7 µM with HOP-92 NSCLC, 17.5 µM in the experiment on UO-31 renal and 23.6 µM with SW-620 colon. The TGI is greater than 100 µM in the experiment with MDA-MB-435; greater than 100 µM in the experiment on HS 578T breast; greater than 100 µM with OVCAR-3 ovarian; 99.7 µM in the experiment on SNB-75 CNS; 82.6 µM in the experiment on CAKI-1 renal; greater than 100 µM in the experiment on SF-295 CNS. Moreover, the TGI with NCI-H226 lung is greater than 100 µM; in the experiment on HOP-92 NSCLC it was greater than 100 µM; in the experiment with UO-31 renal, greater than 86.8 µM; with SW-620 colon it was greater than 100 µM.

Consider `COc1ccc(/C=C/c2nc(N3CCOCC3)c3cc(F)c(F)cc3n2)cc1OC`, for which the GI50 was 3.18 µM with MDA-MB-435; 54.8 µM in the experiment on HS 578T breast; 6.08 µM in the experiment with OVCAR-3 ovarian; 6.14 µM with SNB-75 CNS; 3.23 µM in the experiment on CAKI-1 renal; 3.9 µM in the experiment on SF-295 CNS. Also, the GI50 in the experiment on NCI-H226 lung was 3.07 µM; in the experiment on HOP-92 NSCLC, 4.13 µM; with UO-31 renal it was 3.65 µM; in the experiment with SW-620 colon, 6.1 µM. Besides, the TGI with MDA-MB-435, in the experiment on HS 578T breast, in the experiment on OVCAR-3 ovarian, with SNB-75 CNS, with CAKI-1 renal and in the experiment on SF-295 CNS was greater than 100 µM in each case. Moreover, the TGI in the experiment on NCI-H226 lung is greater than 100 µM; in the experiment with HOP-92 NSCLC, 87.2 µM; in the experiment on UO-31 renal, greater than 100 µM; in the experiment on SW-620 colon it was greater than 100 µM.

On to `COc1ccc(N2CCN(CC(=O)N3CCN(c4nnc(-c5ccccc5)c(-c5ccccc5)n4)CC3)CC2)cc1`, for which the GI50 in the experiment with MDA-MB-435 is 5.48 µM; with HS 578T breast it was 9.46 µM; with OVCAR-3 ovarian, 4.92 µM; with SNB-75 CNS it was 7.63 µM; with CAKI-1 renal, 11.6 µM; in the experiment with SF-295 CNS, 4.15 µM. For the same compound, the GI50 is greater than 100 µM in the experiment on NCI-H226 lung, 7.13 µM with HOP-92 NSCLC, 3.94 µM in the experiment on UO-31 renal and 10.4 µM in the experiment with SW-620 colon. Also, the TGI was greater than 100 µM with MDA-MB-435; greater than 100 µM with HS 578T breast; greater than 93.4 µM in the experiment with OVCAR-3 ovarian; greater than 100 µM in the experiment with SNB-75 CNS; greater than 100 µM with CAKI-1 renal; greater than 100 µM with SF-295 CNS. In addition, the TGI in the experiment with NCI-H226 lung was greater than 100 µM; in the experiment with HOP-92 NSCLC, greater than 94.4 µM; with UO-31 renal it was greater than 90.6 µM; in the experiment on SW-620 colon, greater than 100 µM.

For the compound `O=C(Cc1ccc(/C=C/C(=O)c2ncc[nH]2)cc1)Nc1ccc(Br)cc1`, the GI50 in the experiment with MDA-MB-435 is 3.7 µM; with HS 578T breast, 7.94 µM; in the experiment on OVCAR-3 ovarian it was 0.85 µM; with SNB-75 CNS, 2.37 µM; in the experiment on CAKI-1 renal, 2.92 µM; in the experiment on SF-295 CNS, 2.09 µM. The GI50 in the experiment on NCI-H226 lung was 3.31 µM; in the experiment on HOP-92 NSCLC, 6.74 µM; in the experiment with UO-31 renal, 1.79 µM; in the experiment with SW-620 colon, 0.873 µM. The TGI in the experiment with MDA-MB-435 is 15.6 µM; in the experiment with HS 578T breast, greater than 16.7 µM; in the experiment on OVCAR-3 ovarian, 3.88 µM; in the experiment on SNB-75 CNS it was greater than 16.7 µM; with CAKI-1 renal, 8.48 µM; with SF-295 CNS, 6.19 µM. Further, the TGI is 10.1 µM in the experiment with NCI-H226 lung, greater than 16.7 µM in the experiment with HOP-92 NSCLC, 3.86 µM with UO-31 renal and 4.49 µM in the experiment with SW-620 colon.

Take `C[C@@H]1CN(Cc2ccc(/C=C/c3n[nH]c4ccc5nc(-c6cn[nH]c6C(F)(F)F)c6c(c5c34)CCCC6)cc2)C[C@H](C)O1`: the GI50 with MDA-MB-435 is 6.81 µM; in the experiment on HS 578T breast it was 2.05 µM; in the experiment with OVCAR-3 ovarian, 2.96 µM; in the experiment on SNB-75 CNS, 0.643 µM; in the experiment on CAKI-1 renal it was 2.29 µM; with SF-295 CNS, 3.35 µM. Further, the GI50 is 6.19 µM with NCI-H226 lung, 3.12 µM in the experiment on HOP-92 NSCLC, 2.15 µM in the experiment with UO-31 renal and 2.02 µM in the experiment with SW-620 colon. Also, the TGI with MDA-MB-435 stood at 21.2 µM; in the experiment on HS 578T breast, 10.8 µM; in the experiment with OVCAR-3 ovarian, 14.6 µM; with SNB-75 CNS, 10.1 µM; in the experiment with CAKI-1 renal, 11.5 µM; in the experiment with SF-295 CNS, 18.1 µM. Besides, the TGI in the experiment on NCI-H226 lung came to 32.8 µM; in the experiment with HOP-92 NSCLC it was 17.9 µM; in the experiment on UO-31 renal, 14 µM; in the experiment on SW-620 colon it was 10.1 µM.

For the compound `O=C1CC(c2ccccc2)Cc2nc3ccc(Cl)cc3cc21` (stereo not given), the GI50 with MDA-MB-435 was 0.0235 µM; with HS 578T breast it was 0.351 µM; with OVCAR-3 ovarian, 0.313 µM; in the experiment with SNB-75 CNS it was 0.126 µM; in the experiment with CAKI-1 renal it was 0.112 µM; in the experiment on SF-295 CNS, 0.339 µM. The GI50 is 0.795 µM in the experiment with NCI-H226 lung, 1.51 µM in the experiment with HOP-92 NSCLC, 0.263 µM in the experiment with UO-31 renal and 0.323 µM in the experiment on SW-620 colon. Further, the TGI with MDA-MB-435 is 0.0649 µM; in the experiment on HS 578T breast, greater than 100 µM; with OVCAR-3 ovarian, 1.16 µM; with SNB-75 CNS, 70.3 µM; in the experiment on CAKI-1 renal, greater than 100 µM; in the experiment on SF-295 CNS, 17.3 µM. The TGI in the experiment with NCI-H226 lung was greater than 23.6 µM; in the experiment on HOP-92 NSCLC, 42.5 µM; in the experiment with UO-31 renal it was greater than 93 µM; in the experiment on SW-620 colon, greater than 100 µM.

For the compound `C/C1=C\CC[C@@](C)(O)[C@H]2C[C@H](CC/C(C)=C/CC1)C1(CC1)C(=O)O2`, the GI50 in the experiment with MDA-MB-435 is 25.4 µM; with HS 578T breast, 29.9 µM; with OVCAR-3 ovarian, 25.2 µM; in the experiment with SNB-75 CNS, 44.2 µM; with CAKI-1 renal it was 20.7 µM; in the experiment with SF-295 CNS it was 19.3 µM. Also, the GI50 in the experiment on NCI-H226 lung is 21.2 µM; in the experiment with HOP-92 NSCLC it was 16 µM; in the experiment with UO-31 renal it was 18.2 µM; in the experiment on SW-620 colon, 21.8 µM. For the same compound, the TGI in the experiment on MDA-MB-435 was 79.1 µM; in the experiment on HS 578T breast, 96.5 µM; in the experiment on OVCAR-3 ovarian, 84.7 µM; with SNB-75 CNS it was greater than 100 µM; with CAKI-1 renal, 43.3 µM; with SF-295 CNS, 46.7 µM. For the same compound, the TGI in the experiment with NCI-H226 lung stood at 46.5 µM; in the experiment with HOP-92 NSCLC it was 33.3 µM; in the experiment on UO-31 renal, 33.8 µM; in the experiment on SW-620 colon, 46.2 µM.
